Literature values in patent US20230404937A1, “NOVEL DISINTEGRATION ORAL FILM FORMULATION WITH A CONTROLLED OR SUSTAINED ACTIVE RELEASE” (INTELGENX CORP., priority 2022, published 2023).

Settings: when orally ingested; first metabolized in the liver

In the case of `CCCCCc1cc(O)c2c(c1)OC(C)(C)[C@@H]1CCC(C)=C[C@@H]21` [THC, tetrahydrocannabinol], the oral bioavailability is listed as 5%.
